Experimental data: US8642656B2, “Calixarene-based peptide conformation mimetics, methods of use, and methods of making” (priority 2004, dated 2014)
Read-outs that look alike come from different tables or passages of the source.

Assays:
LPS from P. aeruginosa = test: LPS neutralization assay (Limulus amoebocyte lysate, QCL-1000); format: biochemical, Pseudomonas aeruginosa; conditions: read-out: IC50 values (μM) for LPS binding, P.a.
Description: (§1) The ability of compounds to neutralize endotoxin was detected in vitro by using the chromogenic QCL-1000 kit from BioWhittaker, Inc. (Walkersville, Md.), and as described in their protocol. This Limulus amoebocyte lysate (LAL) assay is quantitative for Gram negative bacterial endotoxin (lipopolysaccharide, LPS). In this assay compounds that are active inhibit the LPS-mediated activation of a proenzyme whose active form would release p-nitroaniline (pNA) from a colorless synthetic substrate producing a yellow color (pNA) whose absorption is monitored spectrophotometrically at 405-410 nm. The initial rate of enzyme activation is proportional to the concentration of endotoxin present.
(§2) Variants of LPS from six Gram negative bacteria were used: E. coli serotypes 0111:B4 (Combrex, Walkersville, Md.) and 055:B5 (Sigma, St. Louis, Mo.); Klebsiella pneumoniae (List Biologies, San Jose, Calif.); Pseudomonas aeruginosa (List Biologies, San Jose, Calif.); Salmonella typhimurium (List Biologies, San Jose, Calif.), and Serratia marcascens (List Biologies, San Jose, Calif.). The concentration of compound required to neutralize a given LPS and therefore to inhibit the Limulus amoebocyte lysate driven by 0.04 units of any given LPS was determined by dose response curves fit by using a standard sigmoidal function to determined the JC50 value for each lopomimetic compound. The 0.04 units corresponds to 0.01 ng LPS from E. coli serotype 055:B5, 0.01 ng LPS from E. coli serotype 0111:B4, 0.003 ng LPS from K. pneumoniae, 0.01 ng LPS from P. aeruginosa, 0.03 ng LPS from S. typhimurium, and 0.03 ng LPS from S. marcascens.

[1] = tested on: LPS from E. coli serotype 055:B5; test: as above; format: biochemical
Description: as §1, §2

[2] = tested on: LPS from E. coli serotype 0111:B4; test: as above; format: biochemical; conditions: read-out: IC50 values (μM) for LPS binding, E. coli 0111:B4
Description: as §1, §2

LPS from S. typhimurium = test: as above; format: biochemical, Salmonella typhimurium; conditions: read-out: IC50 values (μM) for LPS binding, Salmonella
Description: as §1, §2

LPS from S. marcascens = test: as above; format: biochemical, Serratia marcascens; conditions: read-out: IC50 values (μM) for LPS binding, Serratia
Description: as §1, §2

LPS from K. pneumoniae = test: as above; format: biochemical, Klebsiella pneumoniae; conditions: read-out: IC50 values (μM) for LPS binding, Klebsiella
Description: as §1, §2

E. coli J96 = test: Bactericidal assay on J96; format: cell-based; conditions: in the micromolar range (Table 1)
Description: Pseudomonas aeruginosa type 1 is a clinical, smooth strain isolate stereotyped by using the scheme of Homma et al., Japan. J. Exp. Med. 46, 329-336 (1976) and maintained in the lab by monthly transfer on blood agar plates. E. coli J96, IA2, and H5 are smooth strain, uropathogenic clinical isolates kindly maintained and provided by J. R. Johnson and described in Johnson et al., J. Infect. Disease 173, 920-926 (1996) for J96 and IA2 and in Johnson et al., J. Infect. Disease 173, 746-749 (1996) for H5. J5 is an E. coli rough strain initially referenced by G. R. Siber and discussed in Warren et al., Infect. Immunity 55, 1668-1673 (1987) and is analogous to the smooth strain E. coli 0111:B4 used in the BioWhittaker LAL endotoxin detection and quantitation kit described below. Gram-positive MN8 and MNHO are two patient isolates of Staphylococcus aureus, which were kindly provided by P. M. Schlievert and described in Bohach et al., Rev. Infect. Diseases 11, 75-82 (1989) for MNHO and in Schlievert et al., J. Infect. Diseases 147, 236-242 (1983) for MN8. All cultures are maintained on nutrient agar plates.
Pyrogen-free solutions were used throughout the assay. Log phase bacteria were obtained by transferring an overnight culture or scraping crystals off-85° C glycerol stocks of overnight cultures. Bacteria were washed and resuspended in 0.9% sodium chloride with adjustment to an optical density at 650 nm which yields 3×10^8 CFU/ml. Bacteria were then diluted 1:10 in 0.08 M citrate phosphate buffer, pH 7.0 (prepared by mixing 0.08 M citric acid with 0.08 M dibasic sodium phosphate). Bacteria (0.15 ml) were incubated with the test compound in a final volume of 1.0 ml of buffer. The assay was done in 17×100 polypropylene tubes in a reciprocal water bath shaker at 37° C for 30 minutes. Following this 30 minute (min) incubation. 10-fold dilutions were made in 0.9% sodium chloride. Dilutions were done to 10^−4 and 20 μl of each dilution was streaked across an agar plate. Gram-positive organisms were plated on nutrient agar plates containing 2% agar and Gram-negative organisms were plated on MacConkey agar (2%). Plates were incubated overnight at 37° C and counted the next morning. The dilution containing 10-100 bacteria was counted and the number multiplied by 50 to adjust all counts to the number bacteria killed per milliliter. Compound concentrations were converted to logarithm base ten and graphed. Bactericidal activity was determined by dose response where LD50 values were determined by best fits of a sigmoidal curve to the dose response data.

[3] = Table 3, errors estimated ±30%, read-out: IC50 values (μM) for LPS binding, E. coli 055:B5
[4] = Table 2, read-out: IC50 values (μM) for LPS binding, E. coli 055:B4

Compound | IC50 (LPS from P. aeruginosa; Table 3, errors estimated ±30%) [µM] | IC50 [1, 3] [µM] | IC50 ([2]; Table 3, errors estimated ±30%) [µM] | IC50 (LPS from S. typhimurium; Table 3, errors estimated ±30%) [µM] | IC50 (LPS from S. marcascens; Table 3, errors estimated ±30%) [µM] | IC50 (LPS from K. pneumoniae; Table 3, errors estimated ±30%) [µM] | IC50 (LPS from P. aeruginosa; Table 2) [µM] | IC50 [1, 4] [µM] | IC50 ([2]; Table 2) [µM] | IC50 (LPS from S. typhimurium; Table 2) [µM] | IC50 (LPS from S. marcascens; Table 2) [µM] | IC50 (LPS from K. pneumoniae; Table 2) [µM] | bactericidal activity (in words) (E. coli J96)
5,11,17,23-Tetra-tert-butyl-25-(2-aminoethoxy)-27-(2-guanidinoethoxy)-26,28-dihydroxy Calix[4]arene trifluoroacetic acid salt [Compound 28] | > 5 | 4.1 | > 5 | 2.6 | > 5 | > 5 |  |  |  |  |  |  | 
5,17-Di-(2-methallyl)-11,23-diallyl-25,26,27,28-tetrakis-N—(N,N-dimethyl-2-aminoethyl) carbamoylmethoxy calix[4]arene [Compound 41] | > 5 | 3.6 | 4.7 | > 5 | > 5 | > 5 |  |  |  |  |  |  | 
5,17-Di-(2-methylpropyl)-11,23-dipropyl-25,26,27,28-tetrakis-N—(N,N-dimethyl-2-aminoethyl)carbamoylmethoxy calix[4]arene [Compound 17] | > 5 | 3.8 | 3.7 | 3.1 | > 5 | 2.1 |  |  |  |  |  |  | 
5,17-Di-(hydroxycabonyl)ethyl-25,27-di-(3-methylbutoxy)-26,28-dihydroxycalix[4]arene [Compound 47] | > 5 | > 5 | > 5 | > 5 | > 5 | > 5 | > 5 | > 5 | > 5 | > 5 | > 5 | > 5 | 
25,27-Bis(2-guanidinoethoxy)-26,28-dihydroxy calix[4]arene trifluoroacetic acid salt [Compound 36] | > 5 | 4.1 | 3.9 | > 5 | > 5 | > 5 |  |  |  |  |  |  | 
25,27-Bis[N-(2-aminoethyl)carbamoylmethoxy]-26,28-dihydroxy calix[4]arene [Compound 39] | > 5 | > 5 | > 5 | > 5 | > 5 | > 5 | 0.8 | 0.9 | 1.6 | 0.6 | 1.5 | 0.3 | 
25,27-Bis[N—(N,N-dimethyl-2-aminoethyl)carbamoylmethoxy]-26,28-dihydroxy calix[4]arene [Compound 38] | > 5 | > 5 | > 5 | > 5 | > 5 | > 5 |  |  |  |  |  |  | 
CN(C)CCNC(=O)COc1c2cc(C(C)(C)C)cc1Cc1cc(C(C)(C)C)cc(c1OCC(=O)NCCN(C)C)Cc1cc(C(C)(C)C)cc(c1OCC(=O)NCCN(C)C)Cc1cc(C(C)(C)C)cc(c1OCC(=O)NCCN(C)C)C2 [Compound 3] | > 5 | > 5 | > 5 | > 5 | > 5 | > 5 | > 5 | 4.4 | > 5 | 4.1 | > 5 | 0.08 | reasonably good bactericidal activity
CC(C)(C)c1cc2c(OCC(=O)NCCN)c(c1)Cc1cc(C(C)(C)C)cc(c1OCC(=O)NCCN)Cc1cc(C(C)(C)C)cc(c1OCC(=O)NCCN)Cc1cc(C(C)(C)C)cc(c1OCC(=O)NCCN)C2 [Compound 4] | 0.8 | 0.9 | 1.6 | 0.6 | 1.5 | 0.3 | > 5 | 0.05 | 2.7 | 0.8 | > 5 | 0.4 | 
CCCc1cc2c(OCC(=O)NCCN(C)C)c(c1)Cc1cc(CCC)cc(c1OCC(=O)NCCN(C)C)Cc1cc(CCC)cc(c1OCC(=O)NCCN(C)C)Cc1cc(CCC)cc(c1OCC(=O)NCCN(C)C)C2 [Compound 11b] | > 5 | 0.05 | 2.7 | 0.8 | > 5 | 0.4 |  |  |  |  |  |  | 
NCCNC(=O)COc1c2cccc1Cc1cccc(c1O)Cc1cccc(c1OCC(=O)NCCN)Cc1cccc(c1O)C2 [Compound 20] |  |  |  |  |  |  | > 5 | > 5 | > 5 | 1.2 | > 5 | > 5 | 
CC(C)CCOc1c2cccc1Cc1cc(CCCP(=O)(O)O)cc(c1O)Cc1cccc(c1OCCC(C)C)Cc1cc(CCCP(=O)(O)O)cc(c1O)C2 [Compound 48] | > 5 | > 5 | > 5 | > 5 | > 5 | > 5 | > 5 | > 5 | > 5 | > 5 | > 5 | > 5 | 
CC(C)CCOc1c2cccc1Cc1cc(CCCOS(=O)(=O)O)cc(c1O)Cc1cccc(c1OCCC(C)C)Cc1cc(CCCOS(=O)(=O)O)cc(c1O)C2 [Compound 49] | > 5 | 5 | 5 | > 5 | 4.2 | 2.1 | > 5 | 5 | 5 | > 5 | 4.2 | 2.1 | 
polymyxin B [PmxB, reference compound] | 0.003 | 0.03 | 0.03 | 0.3 | > 5 | 0.01 | 0.003 | 0.03 | 0.03 | 0.1 | > 5 | 0.01 | 
